Measurements from patent EP4745135A1 (Gluetacs Therapeutics (Shanghai) Co., Ltd., priority 2023, dated 2025).

What was measured:
[1] = biological target: T1, CK1α (Homo sapiens, UniProt P48729+Q96SW2); test: Western blot, degradation of substrate protein in hPBMCs; format: cell-based
T1 construct: effects of the compounds of the present disclosure on the expression of target proteins in cells; endogenous in cells; host or cells: human PBMCs (Milecell Biotechnologies)

[2] = biological target: T2, IKZF1 (Homo sapiens, UniProt Q13422+Q96SW2); test: as above; format: cell-based
T2 construct: effects of the compounds of the present disclosure on the expression of target proteins in cells; endogenous in cells; host or cells: human PBMCs (Milecell Biotechnologies)
T2 sequence (Q13422 whole entry): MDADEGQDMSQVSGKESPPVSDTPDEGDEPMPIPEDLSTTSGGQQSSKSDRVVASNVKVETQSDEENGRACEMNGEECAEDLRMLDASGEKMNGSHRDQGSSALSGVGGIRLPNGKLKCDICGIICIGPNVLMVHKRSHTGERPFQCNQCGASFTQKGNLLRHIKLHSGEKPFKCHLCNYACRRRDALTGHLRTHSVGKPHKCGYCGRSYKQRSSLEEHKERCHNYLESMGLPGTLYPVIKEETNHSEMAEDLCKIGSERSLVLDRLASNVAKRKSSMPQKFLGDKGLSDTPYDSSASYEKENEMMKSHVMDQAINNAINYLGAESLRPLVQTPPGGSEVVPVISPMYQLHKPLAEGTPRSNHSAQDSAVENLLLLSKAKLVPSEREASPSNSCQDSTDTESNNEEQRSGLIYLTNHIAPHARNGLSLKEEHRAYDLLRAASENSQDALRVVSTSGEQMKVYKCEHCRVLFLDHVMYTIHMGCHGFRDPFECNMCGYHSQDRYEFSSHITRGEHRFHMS
T2 sequence (Q96SW2 whole entry): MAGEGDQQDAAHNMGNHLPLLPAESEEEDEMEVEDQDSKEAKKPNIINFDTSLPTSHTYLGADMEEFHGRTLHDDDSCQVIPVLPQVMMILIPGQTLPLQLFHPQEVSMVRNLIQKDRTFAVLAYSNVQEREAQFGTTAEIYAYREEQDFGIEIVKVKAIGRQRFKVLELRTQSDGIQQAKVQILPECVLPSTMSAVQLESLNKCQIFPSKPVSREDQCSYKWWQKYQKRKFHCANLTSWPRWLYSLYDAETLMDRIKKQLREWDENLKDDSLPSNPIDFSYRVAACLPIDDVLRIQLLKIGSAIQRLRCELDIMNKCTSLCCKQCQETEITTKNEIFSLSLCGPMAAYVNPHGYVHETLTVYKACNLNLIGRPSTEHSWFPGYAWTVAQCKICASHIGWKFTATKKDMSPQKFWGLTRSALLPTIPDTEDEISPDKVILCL
T2 sequence (Q16531 whole entry partner): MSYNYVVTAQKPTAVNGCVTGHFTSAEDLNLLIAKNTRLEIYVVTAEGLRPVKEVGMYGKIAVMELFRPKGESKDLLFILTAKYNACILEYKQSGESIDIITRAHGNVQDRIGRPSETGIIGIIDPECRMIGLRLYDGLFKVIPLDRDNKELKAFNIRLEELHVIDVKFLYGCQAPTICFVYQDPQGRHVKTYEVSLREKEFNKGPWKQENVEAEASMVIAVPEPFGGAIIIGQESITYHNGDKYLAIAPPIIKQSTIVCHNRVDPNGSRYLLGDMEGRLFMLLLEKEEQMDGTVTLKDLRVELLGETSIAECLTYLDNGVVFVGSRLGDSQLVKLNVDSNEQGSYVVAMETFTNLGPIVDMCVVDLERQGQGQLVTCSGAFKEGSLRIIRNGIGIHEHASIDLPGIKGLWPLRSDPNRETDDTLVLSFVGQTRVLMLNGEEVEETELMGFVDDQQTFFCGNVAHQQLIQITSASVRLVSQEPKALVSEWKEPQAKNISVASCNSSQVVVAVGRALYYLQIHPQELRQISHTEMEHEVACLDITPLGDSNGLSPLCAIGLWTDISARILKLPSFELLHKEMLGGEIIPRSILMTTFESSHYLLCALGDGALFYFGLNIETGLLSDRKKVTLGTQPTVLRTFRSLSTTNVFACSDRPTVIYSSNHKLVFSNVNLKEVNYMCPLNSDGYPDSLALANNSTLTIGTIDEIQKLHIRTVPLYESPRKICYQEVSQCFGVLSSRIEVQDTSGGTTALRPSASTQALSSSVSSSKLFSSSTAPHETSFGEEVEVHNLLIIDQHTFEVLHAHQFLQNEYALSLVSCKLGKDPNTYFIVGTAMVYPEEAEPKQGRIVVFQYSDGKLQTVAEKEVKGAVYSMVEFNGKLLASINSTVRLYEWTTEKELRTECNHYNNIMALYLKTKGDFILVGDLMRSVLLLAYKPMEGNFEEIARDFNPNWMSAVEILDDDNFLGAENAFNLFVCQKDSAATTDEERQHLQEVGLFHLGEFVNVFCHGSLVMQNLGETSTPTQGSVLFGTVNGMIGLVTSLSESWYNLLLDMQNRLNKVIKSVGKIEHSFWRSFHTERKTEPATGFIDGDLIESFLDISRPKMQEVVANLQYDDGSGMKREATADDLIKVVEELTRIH

[3] = biological target: T3, IKZF2 (Homo sapiens, UniProt Q96SW2+Q9UKS7); test: as above; format: cell-based
T3 construct: effects of the compounds of the present disclosure on the expression of target proteins in cells; endogenous in cells; host or cells: human PBMCs (Milecell Biotechnologies)
T3 sequence (Q9UKS7 whole entry): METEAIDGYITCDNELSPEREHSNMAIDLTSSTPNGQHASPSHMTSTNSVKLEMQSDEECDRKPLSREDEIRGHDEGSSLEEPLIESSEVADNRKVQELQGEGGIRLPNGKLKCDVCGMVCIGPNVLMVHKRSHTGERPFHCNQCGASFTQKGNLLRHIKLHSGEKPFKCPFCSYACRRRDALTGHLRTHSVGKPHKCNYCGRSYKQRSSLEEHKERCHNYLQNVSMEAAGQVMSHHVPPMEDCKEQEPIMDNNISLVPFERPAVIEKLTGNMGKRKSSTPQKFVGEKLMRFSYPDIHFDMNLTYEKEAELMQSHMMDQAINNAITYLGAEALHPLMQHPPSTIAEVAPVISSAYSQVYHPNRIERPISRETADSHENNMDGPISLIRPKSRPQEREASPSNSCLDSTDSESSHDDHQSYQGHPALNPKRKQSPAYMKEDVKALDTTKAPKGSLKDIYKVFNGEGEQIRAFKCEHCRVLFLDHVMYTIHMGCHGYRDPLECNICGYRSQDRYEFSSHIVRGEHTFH
T3 sequence (Q96SW2 whole entry): as the sequence (Q96SW2 whole entry) above
T3 sequence (Q16531 whole entry partner): as the sequence (Q16531 whole entry partner) above

[4] = biological target: T4, IKZF3 (Homo sapiens, UniProt Q96SW2+Q9UKT9); test: as above; format: cell-based
T4 construct: effects of the compounds of the present disclosure on the expression of target proteins in cells; endogenous in cells; host or cells: human PBMCs (Milecell Biotechnologies)
T4 sequence (Q9UKT9 whole entry): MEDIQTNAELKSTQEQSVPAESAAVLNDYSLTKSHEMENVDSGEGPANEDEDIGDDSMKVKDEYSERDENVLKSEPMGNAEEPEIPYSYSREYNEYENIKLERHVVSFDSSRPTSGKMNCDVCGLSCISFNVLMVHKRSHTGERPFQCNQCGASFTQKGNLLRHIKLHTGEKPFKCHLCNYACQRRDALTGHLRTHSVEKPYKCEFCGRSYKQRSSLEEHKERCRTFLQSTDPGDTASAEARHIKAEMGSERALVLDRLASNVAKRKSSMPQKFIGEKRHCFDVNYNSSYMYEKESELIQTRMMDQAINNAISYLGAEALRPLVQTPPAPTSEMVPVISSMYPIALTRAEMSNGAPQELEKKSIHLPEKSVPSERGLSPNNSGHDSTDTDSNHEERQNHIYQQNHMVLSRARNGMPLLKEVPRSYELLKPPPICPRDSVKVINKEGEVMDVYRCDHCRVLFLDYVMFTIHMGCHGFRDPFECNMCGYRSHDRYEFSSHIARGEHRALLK
T4 sequence (Q96SW2 whole entry): as the sequence (Q96SW2 whole entry) above
T4 sequence (Q16531 whole entry partner): as the sequence (Q16531 whole entry partner) above

[5] = biological target: T5, WEE1 (Homo sapiens, UniProt P30291+Q96SW2); test: as above; format: cell-based
T5 construct: effects of the compounds of the present disclosure on the expression of target proteins in cells; endogenous in cells; host or cells: human PBMCs (Milecell Biotechnologies)
T5 sequence (P30291 whole entry): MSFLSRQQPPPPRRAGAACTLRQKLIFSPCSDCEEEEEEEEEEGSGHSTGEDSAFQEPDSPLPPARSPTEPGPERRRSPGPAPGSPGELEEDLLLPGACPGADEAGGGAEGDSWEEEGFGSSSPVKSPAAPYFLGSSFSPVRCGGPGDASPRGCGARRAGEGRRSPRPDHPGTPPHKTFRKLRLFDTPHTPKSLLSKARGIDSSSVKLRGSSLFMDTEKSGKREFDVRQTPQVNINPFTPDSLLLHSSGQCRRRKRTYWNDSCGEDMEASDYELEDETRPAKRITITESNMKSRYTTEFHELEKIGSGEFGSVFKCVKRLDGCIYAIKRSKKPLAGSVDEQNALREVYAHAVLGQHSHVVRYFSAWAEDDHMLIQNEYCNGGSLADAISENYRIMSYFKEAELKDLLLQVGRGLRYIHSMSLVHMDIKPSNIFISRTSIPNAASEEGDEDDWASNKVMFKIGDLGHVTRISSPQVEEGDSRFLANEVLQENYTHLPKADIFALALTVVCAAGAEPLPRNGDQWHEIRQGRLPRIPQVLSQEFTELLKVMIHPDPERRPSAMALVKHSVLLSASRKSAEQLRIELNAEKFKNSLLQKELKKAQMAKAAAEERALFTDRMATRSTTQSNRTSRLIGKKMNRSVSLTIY
T5 sequence (Q96SW2 whole entry): as the sequence (Q96SW2 whole entry) above
T5 sequence (Q16531 whole entry partner): as the sequence (Q16531 whole entry partner) above

[6] = tested on: GSPT1; test: as above; format: cell-based, Human
[7] = biological target: T6, human Cereblon WT GST-tagged protein (Homo sapiens, UniProt Q96SW2); test: CRBN-binding affinity, HTRF (CEREBLON BINDING kit); settings: for inhibition at 0.5 µM: read-out: Inhibition Rate at 0.5 µM (%); for inhibition at 2 µM: read-out: Inhibition Rate at 2 µM (%)
T6 construct: purchased CISBIO 64BDCRBNPEH
T6 sequence (Q96SW2 whole entry): as the sequence (Q96SW2 whole entry) above

[8] = Western blot, 24 hours of compound treatment, compounds tested at 50 nM and 500 nM (concentration for the table not stated)
[9] = 24 hours treatment, compounds at 50 nM and 500 nM (concentration behind the class not stated)

T1 sequence (P48729 whole entry): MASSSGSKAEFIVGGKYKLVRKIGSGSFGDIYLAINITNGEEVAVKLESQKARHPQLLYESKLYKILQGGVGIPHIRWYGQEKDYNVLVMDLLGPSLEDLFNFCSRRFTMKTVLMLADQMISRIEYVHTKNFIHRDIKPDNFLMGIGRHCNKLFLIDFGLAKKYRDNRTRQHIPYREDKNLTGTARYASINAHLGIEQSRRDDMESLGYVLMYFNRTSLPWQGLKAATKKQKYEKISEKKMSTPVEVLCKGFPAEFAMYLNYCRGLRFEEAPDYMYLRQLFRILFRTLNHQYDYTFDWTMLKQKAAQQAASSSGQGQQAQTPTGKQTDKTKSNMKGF
T1 sequence (Q96SW2 whole entry): as the sequence (Q96SW2 whole entry) above
T1 sequence (Q16531 whole entry partner): as the sequence (Q16531 whole entry partner) above

| Structure (SMILES) | CK1α substrate protein remaining % [1, 8] | IKZF 1 substrate protein remaining % [2, 8] | IKZF2 substrate protein remaining % [3, 8] | IKZF3 substrate protein remaining % [4, 8] | Wee1 substrate protein remaining % [5, 8] | GSPT1 substrate protein remaining % [6, 8] | inhibition at 0.5 µM [7] [%] | inhibition at 2 µM [7] [%] | CK1α substrate protein remaining % [1, 9] | IKZF 1 substrate protein remaining % [2, 9] | IKZF2 substrate protein remaining % [3, 9] | IKZF3 substrate protein remaining % [4, 9] | Wee1 substrate protein remaining % [5, 9] | GSPT1 substrate protein remaining % [6, 9] |
| --- | --- | --- | --- | --- | --- | --- | --- | --- | --- | --- | --- | --- | --- | --- |
| O=C1CCC(N2Cc3cc(CN4C[C@@H]5C[C@H]4CN5C(c4ccccc4)c4ccccc4)ccc3C2=S)C(=O)N1 (stereo partly drawn) [GT-07739, 3-(5-(((1S,4S)-5-benzhydryl-2,5-diazabicyclo[2.2.1]heptan-2-yl)methyl)-1-thioxoisoindolin-2-yl)piperidine-2,6-dione] | B (80%< substrate protein remaining %≤ 100%) | A (0% ≤ substrate protein remaining % ≤ 80%) | A (0% ≤ substrate protein remaining % ≤ 80%) | B (80%< substrate protein remaining %≤ 100%) | B (80%< substrate protein remaining %≤ 100%) | A (0% ≤ substrate protein remaining % ≤ 80%) | 60 to 80 | 80 to 100 | – | – | – | – | – | – |
| O=C1CCC(N2Cc3c(CN4CCN(c5cccnn5)CC4)cccc3C2=S)C(=O)N1 (stereo not shown) [GT-08810, 3-(4-((4-(pyridazin-3-yl)piperazin-1-yl)methyl)-1-thioxoisoindolin-2-yl)piperidine-2,6-dione] | B (80%< substrate protein remaining %≤ 100%) | B (80%< substrate protein remaining %≤ 100%) | B (80%< substrate protein remaining %≤ 100%) | B (80%< substrate protein remaining %≤ 100%) | A (0% ≤ substrate protein remaining % ≤ 80%) | B (80%< substrate protein remaining %≤ 100%) | 60 to 80 | 80 to 100 | – | – | – | – | – | – |
| O=C1CCC(N2Cc3cc(CN4CCN(c5ccc(F)c(F)c5)CC4)ccc3C2=S)C(=O)N1 (stereo not shown) [GT-08627, 3-(5-((4-(3,4-difluorophenyl)piperazin-1-yl)methyl)-1-thioxoisoindolin-2-yl)piperidine-2,6-dione] | B (80%< substrate protein remaining %≤ 100%) | B (80%< substrate protein remaining %≤ 100%) | B (80%< substrate protein remaining %≤ 100%) | B (80%< substrate protein remaining %≤ 100%) | B (80%< substrate protein remaining %≤ 100%) | A (0% ≤ substrate protein remaining % ≤ 80%) | 60 to 80 | 80 to 100 | – | – | – | – | – | – |
| Cc1nc(C2CCN(Cc3cccc4c3CN(C3CCC(=O)NC3=O)C4=S)CC2)c2c3c(sc2n1)CCCC3 (stereo not shown) [GT-08933, 3-(4-((4-(2-methyl-5,6,7,8-tetrahydrobenzo[4,5]thieno[2,3-d]pyrimidin-4-yl)piperidin-1-yl)methyl)-1-thioxoisoindolin-2-yl)piperidine-2,6-dione] | – | – | – | – | – | – | 53 to 60 | 60 to 80 | B (80%< substrate protein remaining %≤ 100%) | A (0% ≤ substrate protein remaining % ≤ 80%) | B (80%< substrate protein remaining %≤ 100%) | B (80%< substrate protein remaining %≤ 100%) | A (0% ≤ substrate protein remaining % ≤ 80%) | A (0% ≤ substrate protein remaining % ≤ 80%) |
| O=C1CCC(N2Cc3cc(CN4CCN(c5nccc(F)c5F)CC4)ccc3C2=S)C(=O)N1 (stereo not shown) [GT-09235, 3-(5-((4-(3,4-difluoropyridin-2-yl)piperazin-1-yl)methyl)-1-thioxoisoindolin-2-yl)piperidine-2,6-dione] | A (0% ≤ substrate protein remaining % ≤ 80%) | B (80%< substrate protein remaining %≤ 100%) | A (0% ≤ substrate protein remaining % ≤ 80%) | A (0% ≤ substrate protein remaining % ≤ 80%) | B (80%< substrate protein remaining %≤ 100%) | A (0% ≤ substrate protein remaining % ≤ 80%) | 60 to 80 | 80 to 100 | – | – | – | – | – | – |
